Legend:
[1] = target: T1, E. huxleyi dihydroorotate dehydrogenase (EhDHODH); assay: DCIP colorimetric DHODH activity assay, Morrison tight-binding fit; IC50 […]; format: biochemical, Emiliania huxleyi
T1 construct: ΔN20EhDHODH (first 20 residues truncated, start at residue 21; N-terminal eight-residue histidine tag)

[2] = target: E. huxleyi dihydroorotate dehydrogenase (EhDHODH)

| IC50 [2] | SMILES | Ki [1] |
| --- | --- | --- |
| – | CCCCCCCc1cc(=O)c2ccccc2[nH]1 [HHQ] | 0.0023 ± 0.0007 µM |
| 43 ± 11 µM | Cc1c(-c2ccc(-c3ccccc3F)cc2)nc2ccc(F)cc2c1C(=O)O [brequinar] | – |

Source: article PMC10587436, “A bacterial quorum sensing signal is a potent inhibitor of de novo pyrimidine biosynthesis in the globally abundant Emiliania huxleyi” (Frontiers in Microbiology, 2023)
